# In patent US20210228523A1, “MODULATORS OF SESTRIN-GATOR2 INTERACTION AND USES THEREOF” (Navitor Pharmaceuticals, Inc., priority 2017, published 2021):
# How the values were obtained:
# mTORC1 = assay: Western blot of pS6 in rat brain and selected peripheral organs; type: in vivo; settings: Example D; NV-5138 160 mg/kg oral; 1 hr post-dose
# Experimental: Study Design: Thirty (30) male rats weighing between 175 and 200 g were randomized into 3 study groups (n=10), following a 5-day acclimation period. One hour following dosing rats were sacrificed by conscious decapitation, plasma, brain and selected peripheral tissues were harvested for compound level and WB analysis. Tissues were prepared for WB to quantitate the mTORC1 substrate pS6 as a measure of mTORC1 activity.
# The dosing volume based on the weight of the animal (10 mL/kg) was administered by oral gavage. Test articles were prepared the day of dosing.
# Tissues Preparations: One hour following dosing rats were sacrificed by conscious decapitation, plasma, brain and peripheral tissues were harvested and immediately frozen in liquid nitrogen. Tissues were thawed and homogenized for 1 min twice using MP homogenizer in Lysis Buffer (Cell lysis buffer: 1% Triton X-100, 50 mM HEPES pH 7.4, 100 mM NaCl, 2 mM EDTA, 10 mM Beta-glycerophosphate, 10 mM Sodium pyrophosphate, and 1 protease inhibitor tab per 50 mL fresh) at 4° C. Lysates were then sonicated on ice for 20 s at 50% amplitude. The protein concentration was determined by Bradford assay and all samples were mixed with loading buffer (50 mM Tris-HCl pH 6.8, 2% SDS, 5% glycerol, 5% β-mercaptoethanol and 0.01% Bromophenol blue) and stored at −20° C. until WB analysis.
# Western Blot (WB) Analysis. Equal amounts of each sample (15 μg of total protein) were loaded and separated on NuPAGE 4-12% Bis-Tris gels and transferred to PVDF membrane (Immobilon-FL PVDF membrane, Millipore) using CAPS Buffer (10 mM 3-(Cyclohexylamino)-1-propanesulfonic acid, 12.5% Ethanol pH=10). After transfer, membranes were incubated for 1 hr at room temperature in Odyssey blocking buffer (Licor). After blocking, membranes were incubated at 4° C. overnight with primary antibodies. Primary antibodies used were rabbit anti-[…] (cell signaling; #5364) at 1:1000, mouse anti-GAPDH (Sigma; #G8795) at 1:1000 and mouse anti-a-tubulin (Sigma; #T5168) at 1:10000 in Odyssey blocking buffer. The next day, membranes were washed three times in 1×TBS-Tween (25 mM Tris, pH 7.4, 3.0 mM KCl, 140 mM NaCl and 0.05% Tween-20) and incubated with dye-coupled secondary antibodies (goat anti-mouse IRdye680, and goat anti-rabbit IRdye800 from LI-COR) at 1:20000 in Odyssey blocking buffer for 30 min then wash three times in IX TBS-Tween. Signals were quantified using the Odyssey Infrared Imaging System (LI-COR Bioscience). The resulting densitometric readings were used to generate a ratio of phopho-protein to a-tubulin or GAPDH. The resulting ratio was further normalized to vehicle treated control group.
# Male Sprague Dawley rats = assay: Sucrose Preference Test (SPT) in non-stressed and chronic unpredictable stress rats; type: in vivo, rat; settings: Example E, NV-5138 160 mg/kg oral single dose, 24 hrs after dosing
# Experimental: Behavioral Analysis Using the Sucrose Preference Test (SPT): Rats were habituated to a palatable sucrose 1% sucrose solution for 48 hrs to avoid neophobia. Rats were treated with NV-5138 or Veh at the end of day 0 and the SPT was performed 24 hrs post-administration on day 1. For the SPT, rats were deprived of water for 6 hrs and exposed for 60 min to two bottles with equal volumes of 1% sucrose or water. The ratio of the volume of sucrose water consumed to total water consumed during the 1 hr test was defined as sucrose preference (e.g., a ratio of 1 would indicate the rat consumed only 1% sucrose, while a ratio of 0.5 would indicate that the rat drank equal amounts of 1% sucrose and water).
# Chronic Unpredictable Stress (CUS) Conditions: Rats were exposed to a variable sequence of 12 unpredictable stressors, preventing habituation as described (Li, N. et al., Biol Psychiatry 69(8): 754-61 (2011)). […]
# Study Design: Fifty-six (56) male rats weighing between 175 and 200 g were randomized into 4 study groups (n=14/group), following a 5-day acclimation period. […] Crude synaptosomes were prepared from the PFC and the synaptic proteins, GluR1 and PSD95 were quantitated by WB. […]
compound,measurement,setting,value
CC(C)(C[C@H](N)C(=O)O)C(F)F [NV-5138],level of pS6 in rat epididymal fat,mTORC1,significantly increased
same,level of pS6 in rat heart,mTORC1,significantly increased
same,level of pS6 in rat kidney,mTORC1,significantly increased
same,level of pS6 in rat tibialis anterior,mTORC1,significantly increased
same,pS6 levels in liver,mTORC1,not the liver
same,pS6 levels in rat brain,mTORC1,significant activation of mTORC1
same,pS6 levels in testes,mTORC1,significant activation
same,"SPT, mean ratio of 1% sucrose to water consumption",Male Sprague Dawley rats; CUS rats (Group 4),0.79
same,"SPT, mean ratio of 1% sucrose to water consumption",Male Sprague Dawley rats; non-stressed (NS) rats,0.76
